Laboratory results taken from patent US20240409536A1, “COMPOUNDS AND METHODS FOR MODULATING SPLICING” (REMIX THERAPEUTICS INC., priority 2021, published 2024).
pIC50: −log10 of the molar value.

Experiments:
HTT mRNA [1] = assay: Splicing RT-qPCR assay, HTT canonical (CJ) and alternative (AJ) junction mRNA; format: cell-based; conditions: Homo sapiens, A673 or K562 cells, 24 hours; for pIC50: decrease in canonical junction mRNA; for AC50: increase in alternative junction mRNA
Method: (§1) Compounds described herein were used to modulate RNA transcript abundance in cells. The expression of a target mRNA was measured by detecting the formation of an exon-exon junction in the canonical transcript (CJ). A compound mediated exon-inclusion event was detected by observing an increase in formation of a new junction with an alternative exon (AJ). Real-time qPCR assays were used to detect these splicing switches and interrogate the potency of various compounds towards different target genes. A high-throughput real time quantitative PCR (RT-qPCR) assay was developed to measure these two isoforms of the mRNA (CJ and AJ) for exemplary genes, such as HTT, SMN2, and MYB, together with a control housekeeping gene, GAPDH or GUSB or PPIA, used for normalization. Briefly, the A673 or K562 cell line was treated with various compounds described herein (e.g., compounds of Formula (I), (I), or (III)). After treatment, the levels of the HTT, MYB, or SMN2 mRNA targets were determined from each sample of cell lysate by cDNA synthesis followed by qPCR.
(§2) • Cells-to-CT 1-step kit: ThermoFisher A25602, Cells-to-CT lysis reagent: ThermoFisher 4391851C, TaqMan™ Fast Virus 1-Step Master Mix: ThermoFisher 4444436 • GAPDH: VIC-PL, ThermoFisher 4326317E (Assay: Hs99999905_ml)—used for K562/suspension cell lines • GUSB: VIC-PL, ThermoFisher 4326320E (Assay: Hs99999908_ml)—used for K562/suspension cell lines • PPIA: VIC-PL, ThermoFisher 4326316E (Assay: Hs99999904_ml)—used for A673/adherent cell lines
(§3) The A673 cell line was cultured in DMEM with 10% FBS. Cells were diluted with full growth media and plated in a 96-well plate (15,000 cells in 100 ul media per well). The plate was incubated at 37° C. with 5% CO2 for 24 hours to allow cells to adhere. An 11-point 3-fold serial dilution of the compounds was made in DMSO then diluted in media in an intermediate plate. Compounds were transferred from the intermediate plate to the cell plate with the top dose at a final concentration of 10 uM in the well. Final DMSO concentration was kept at or below 0.25%. The cell plate was returned to the incubator at 37° C. with 5% CO2 for an additional 24 hours.
(§4) The K562 cell line was cultured in IMDM with 10% FBS. For K562, cells were diluted with full growth media and plated in either a 96-well plate (50,000 cells in 50 uL media per well) or a 384-well plate (8,000-40,000 cells in 45 uL media per well). An 11-point 3-fold serial dilution of the compounds were made in DMSO then diluted in media in an intermediate plate. Compound was transferred from the intermediate plate to the cell plate with the top dose at a final concentration of 10 uM in the well. Final DMSO concentration was kept at or below 0.25%. Final volume was 100 uL for 96-well plate and 50 uL for 384-well plate. The cell plate was then placed in an incubator at 37° C. with 5% CO2 for 24 hours.
(§5) The cells were then gently washed with 50 uL-100 uL cold PBS before proceeding to addition of lysis buffer. 30 uL-50 uL of room temperature lysis buffer with DNAse I (and optionally RNAsin) was added to each well. Cells were shaken/mixed thoroughly at room temperature for 5-10 minutes for lysis to take place and then 3 uL-5 uL of room temperature stop solution was added and wells were shaken/mixed again. After 2-5 minutes, the cell lysate plate was transferred to ice for RT-qPCR reaction setup. The lysates could also be frozen at −80° C. for later use.
(§6) In some cases, a direct lysis buffer was used. An appropriate volume of 3×lysis buffer (10 mM Tris, 150 mM NaCl, 1.5%-2.5% Igepal and 0.1-1 U/uL RNAsin, pH 7.4) was directly added to either K562 or A673 cells in media and mixed by pipetting 3 times. The plates were then incubated at room temperature with shaking/rocking for 20-50 minutes to allow for lysis to take place. After this time, the cell lysate plate was transferred to ice to set up for the RT-qPCR reactions. The lysates could also be frozen at −80° C. for later use. […]

MYB mRNA [2] = assay: Splicing RT-qPCR assay, MYB canonical (CJ) and alternative (AJ) junction mRNA; format: cell-based; conditions: Homo sapiens, A673 or K562 cells, 24 hours; for pIC50: decrease in canonical junction mRNA; for AC50: increase in alternative junction mRNA
Method: as §1, §2, §3, §4, §5, §6

HTT mRNA [3] = assay: Gene panel canonical junction qPCR assay, HTT CJ mRNA decrease; format: cell-based, human; conditions: Homo sapiens, canonical junction qPCR, read-out: HTT IC50 (decrease in CJ mRNA levels)
In short: (§7)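 IC50 values describe loss of canonical-junction transcript, fitted by 4-parameter logistic to percent response derived from fixed ΔCt windows. Read-out: RT-qPCR on lysates of compound-treated K562 or A673 cells, probes overlapping the exon junction, ΔΔCt versus housekeeping gene and DMSO control.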

MYB mRNA [4] = assay: Gene panel canonical junction qPCR assay, MYB CJ mRNA decrease; format: cell-based, human; conditions: Homo sapiens, canonical junction qPCR, read-out: MYB IC50 (decrease in CJ mRNA levels)
In short: as §7

SMN2 mRNA = assay: Gene panel canonical junction qPCR assay, SMN2 CJ mRNA decrease; format: cell-based, human; conditions: Homo sapiens, canonical junction qPCR, read-out: SMN2 IC50 (decrease in CJ mRNA levels)
In short: as §7

Target C mRNA = assay: Gene panel canonical junction qPCR assay, Target C CJ mRNA decrease; format: cell-based; conditions: Homo sapiens, canonical junction qPCR, read-out: Target C IC50 (decrease in CJ mRNA levels)
In short: as §7

K562 cells = assay: Cell Titer Glo 2.0 cell viability assay in K562 cells; conditions: 72 hours

Row | Compound | pIC50 (HTT mRNA [1]) | pIC50 (MYB mRNA [2]) | pIC50 (HTT mRNA [3]) | pIC50 (MYB mRNA [4]) | pIC50 (SMN2 mRNA) | pIC50 (Target C mRNA) | AC50 (HTT mRNA [1]) | AC50 (MYB mRNA [2]) | Viability (K562 cells)
1 | Cc1cn2cc(NC(=O)c3ccc([C@@H]4C[C@@H](C)N[C@@H](C)C4)c4nccnc34)cc(F)c2n1 [Compound 380] | 6.00 to 7.00 | > 7.00 | 6.00 to 7.00 | > 7.00 | > 7.00 | 6.00 to 7.00 | 100 to 1000 nM | < 100 nM | B (B represents 100-1000 nM)
2 | COc1nc(NC(=O)c2ccc(N3C[C@H](C)N[C@@H](C)C3)c3nccnc23)cn2cc(C)nc12 [Compound 381] | < 5.00 | 6.00 to 7.00 | < 5.00 | 6.00 to 7.00 | > 7.00 | < 5.00 | > 10000 nM | 100 to 1000 nM | B (B represents 100-1000 nM)
3 | Cc1cn2cc(NC(=O)c3ccc(N4C[C@H](C)N[C@@H](C)C4)c4cccnc34)cc(F)c2n1 [Compound 382] | 5.00 to 6.00 | 6.00 to 7.00 | 5.00 to 6.00 | 6.00 to 7.00 | > 7.00 | 5.00 to 6.00 | 1000 to 10000 nM | < 100 nM | B (B represents 100-1000 nM)
4 | COc1nc(NC(=O)c2ccc(N3C[C@@H](C)N[C@@H](C)C3)c3cccnc23)cn2cc(C)nc12 [Compound 383] | 5.00 to 6.00 | 6.00 to 7.00 | 5.00 to 6.00 | 6.00 to 7.00 | > 7.00 | 5.00 to 6.00 | 1000 to 10000 nM | 100 to 1000 nM | B (B represents 100-1000 nM)

Now from value to molecule, other results behind:

Row | pIC50 (HTT mRNA [1]) | pIC50 (MYB mRNA [2]) | pIC50 (HTT mRNA [3]) | pIC50 (MYB mRNA [4]) | pIC50 (SMN2 mRNA) | pIC50 (Target C mRNA) | Compound | AC50 (HTT mRNA [1]) | AC50 (MYB mRNA [2]) | Viability (K562 cells)
5 | 5.00 to 6.00 | > 7.00 | 5.00 to 6.00 | > 7.00 | > 7.00 | < 5.00 | COc1nc(NC(=O)c2ccc(N3C[C@H](C)N[C@@H](C)C3)c3cccnc23)cn2cc(C)nc12 [Compound 384] | 1000 to 10000 nM | < 100 nM | B (B represents 100-1000 nM)
6 | 5.00 to 6.00 | > 7.00 | 5.00 to 6.00 | > 7.00 | > 7.00 | < 5.00 | COc1ccc2c(N3C[C@H](C)N[C@@H](C)C3)ccc(C(=O)Nc3cc(F)c4nc(C)cn4c3)c2n1 [Compound 385] | 1000 to 10000 nM | < 100 nM | B (B represents 100-1000 nM)
7 | 5.00 to 6.00 | > 7.00 | 5.00 to 6.00 | > 7.00 | > 7.00 | 5.00 to 6.00 | COc1ncc2c(N3C[C@H](C)N[C@@H](C)C3)ccc(C(=O)Nc3cn4cc(C)nc4c(OC)n3)c2n1 [Compound 387] | 1000 to 10000 nM | < 100 nM | B (B represents 100-1000 nM)
